Patent publication US6506746B2, “Method for treating cognitive dysfunction” (Eli Lilly and Company, priority 1997, dated 2003)

Columns and labels:
[1] = tested on: elderly patients with cognitive dysfunction; experiment: double-blind multicenter clinical trial in elderly patients with cognitive dysfunction; type: in vivo, human; conditions: 237 elderly patients (>=65 years), versus placebo; BEHAVE-AD, BPRS and CGI rating scales
Description: Changes in behavioral manifestations were measured using the BEHAVE-AD, BPRS, and CGI rating scales, which are known and available to the skilled artisan.

[2] = detection of radiolabelled compound in saliva; type: in vivo
Description: For example, in the treatment of adult humans, dosages of from about 0.25 to 50 mg, preferably from 1 to 30 mg, and most preferably 1 to 20 mg per day may be used. A once a day dosage is normally sufficient, although divided doses may be administered. For treatment of cognitive dysfunction, a dose range of from 1 to 30 mg, preferably 1 to 20 mg per day is suitable.

[3] = tested on: muscarinic cholinergic receptor; conditions: results of pharmacological studies
5-HT1C receptor = biological target: T1, 5-HT1C receptor (Homo sapiens, UniProt P28335); experiment: 5-HT1C receptor activity
T1 sequence (P28335 33-458): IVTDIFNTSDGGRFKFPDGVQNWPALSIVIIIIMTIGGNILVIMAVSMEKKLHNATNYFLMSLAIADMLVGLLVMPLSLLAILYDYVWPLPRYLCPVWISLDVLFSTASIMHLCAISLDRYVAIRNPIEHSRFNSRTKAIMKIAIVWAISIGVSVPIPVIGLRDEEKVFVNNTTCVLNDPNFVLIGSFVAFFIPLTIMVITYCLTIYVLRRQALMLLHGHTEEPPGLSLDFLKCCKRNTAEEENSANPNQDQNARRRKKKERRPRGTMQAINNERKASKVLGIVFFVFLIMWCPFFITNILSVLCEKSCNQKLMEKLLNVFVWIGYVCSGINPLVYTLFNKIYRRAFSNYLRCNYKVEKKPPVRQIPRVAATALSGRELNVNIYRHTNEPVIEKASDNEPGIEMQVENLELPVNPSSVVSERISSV

Structure (SMILES) | changes in behavioral manifestations [1] | detection in saliva [2] | muscarinic cholinergic receptor activity [3] | activity at the 5-HT1C receptor (5-HT1C receptor)
Cc1cc2c(s1)Nc1ccccc1N=C2N1CCN(C)CC1 [2-methyl-4-(4-methyl-1-piperazinyl)-10H-thieno[2,3-b][1,5]benzodiazepine] | can be useful for the treatment of behavioral manifestations of cognitive dysfunction | can be detected in the saliva | has muscarinic cholinergic receptor activity | –
Cc1cc2c(s1)Nc1ccccc1N=C2N1CCN(C)CC1 [anhydrous Form I compound, 2-methyl-4-(4-methyl-1-piperazinyl)-10H-thieno[2,3-b][1,5]benzodiazepine] | – | – | – | active
